The results in this text go back to patent US7998940B2, “Aptamers to von Willebrand factor and their use as thrombotic disease therapeutics” (Archemix Corp., priority 2004, dated 2011).

For this data set, the system named is full length human vWF (SEQ ID NO 7). Put plainly: dot blot KD determination and extent of binding, full length human vWF.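 As to all read-outs here: dot blot binding of aptamers to full length human vWF across a protein titration, incubated 30 minutes at room temperature in 1x DPBS with BSA.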 Particulars: for % binding @ 100 nM vWF: extent of aptamer binding at 100 nM full length human vWF; for Kd: full length human vWF, read-out: KD.
The mark [1] stands for this setting: Phase 3 modification, dot blot, 8 point protein titration.
Setting [2] is: Phase 1 modification, dot blot, 8 point protein titration.

What is called Kd is the free concentration of one partner at which half of the binding sites on the other are occupied at equilibrium, for simple one-to-one binding.

Read-outs that look alike come from different tables or passages of the source. Oligonucleotides are written 5' to 3', each unit as a sugar letter and its base; * is a phosphorothioate linkage, no mark a phosphodiester; rarer units and linkages stand in square brackets, end groups in braces. Plain capitals give the bases only. [PEG] = polyethylene glycol spacer within the chain; [invdT] = inverted (3'-3') thymidine; d = 2'-deoxy (DNA); m = 2'-O-methyl

As for “ARC1363: ARC1361 with single phosphorothioate phosphate backbone modification (mGmCmGmUdG*dCdAmGmUmGmCmCmUmUmCmGmGmCdCmGdTmGdCdGdGdTmGmCdCmUdCdCmGmUdCmAmCmGmC[invdT]; aptamer)”, the “% binding @ 100 nM vWF” value (Phase 3 modification) is recorded as 32.7%. Moreover, the Kd under setting [1] turned out to be 12.7 nM.

Regarding “ARC1361: ARC1346 with a mC to dC modification at position 36 (mGmCmGmUdGdCdAmGmUmGmCmCmUmUmCmGmGmCdCmGdTmGdCdGdGdTmGmCdCmUdCdCmGmUdCmAmCmGmC[invdT])”, the “% binding @ 100 nM vWF” value (Phase 3 modification) was found to be 38.5%. In addition, the Kd under setting [1] amounted to 7.9 nM.

On to “ARC1210: ARC1172 with one residue replaced by 2'-O methyl residue (DNA dGdGdCdGdTdGdCdAdGdTdGdCdCdTdTdCmGdGdCdCdGdTdGdCdGdGdTdGdCdCdTdCdCdGdTdCdAdCdGdCdC[invdT]; aptamer)”, for which the “% binding @ 100 nM vWF” value (Phase 1 modification) stood at 49%. The Kd under setting [2] stood at 2 nM.

“dGdGdCdGTdGdCdAdGTdGdCdCTTdCdGdGdCdCdGTmGdCdGdGTmGmCdCmUdCdCmGmUmCdAdCdGdCdC-3T (dGdGdCdGdTdGdCdAdGdTdGdCdCdTdTdCdGdGdCdCdGdTmGdCdGdGdTmGmCdCmUdCdCmGmUmCdAdCdGdCdC[invdT]; aptamer) [ARC1340]”: for the setting “Phase 2 modification”, the “% binding @ 100 nM vWF” value came to 43% and the Kd is 7.4 nM.

With “ARC1378: ARC1361 with single phosphorothioate phosphate backbone modification (mGmCmGmUdGdCdAmGmUmGmCmCmUmUmCmGmGmCdCmGdTmGdCdGdGdTmGmCdCmUdC*dCmGmUdCmAmCmGmC[invdT]; aptamer)”, the “% binding @ 100 nM vWF” value (Phase 3 modification) is recorded as 31.1%. The Kd under setting [1] amounted to 9.1 nM.

For “ARC1376: ARC1361 with single phosphorothioate phosphate backbone modification (mGmCmGmUdGdCdAmGmUmGmCmCmUmUmCmGmGmCdCmGdTmGdCdGdGdTmGmCdC*mUdCdCmGmUdCmAmCmGmC[invdT]; aptamer)”, where the note is “Phase 3 modification”, the “% binding @ 100 nM vWF” value came out at 31.3%. In addition, under setting [1], the Kd was 4.4 nM.

As for “mGmCmGmUdGdCdAmGmUmGmCmCPEGmGmGmCdCmG-s-TmGdCdGdGTmGmCdCmUdCdCmGmUdCmAmCmGmC-3T (mGmCmGmUdGdCdAmGmUmGmCmC[PEG]mGmGmCdCmG*dTmGdCdGdGdTmGmCdCmUdCdCmGmUdCmAmCmGmC[invdT]) [ARC1527]”, for the setting “Phase 4 and 5 modification”, the “% binding @ 100 nM vWF” value turned out to be 14.1% and the Kd was found to be 3.4 nM.

For the substance “ARC1370: ARC1361 with single phosphorothioate phosphate backbone modification (mGmCmGmUdGdCdAmGmUmGmCmCmUmUmCmGmGmCdCmGdTmG*dCdGdGdTmGmCdCmUdCdCmGmUdCmAmCmGmC[invdT]; aptamer)”, the “% binding @ 100 nM vWF” value (Phase 3 modification) is 22.5%. Besides, the dissociation constant (Kd) under setting [1] was 10.1 nM.

On to “ARC1212: ARC1172 with one residue replaced by 2'-O methyl residue (DNA dGdGdCdGdTdGdCdAdGdTdGdCdCdTdTdCdGdGmCdCdGdTdGdCdGdGdTdGdCdCdTdCdCdGdTdCdAdCdGdCdC[invdT]; aptamer)”, for which the “% binding @ 100 nM vWF” value (Phase 1 modification) came to 49%. Also, the Kd under setting [2] came out at 2 nM.

Regarding “ARC1215: ARC1172 with one residue replaced by 2'-O methyl residue (DNA dGdGdCdGdTdGdCdAdGdTdGdCdCdTdTdCdGdGdCdCdGmUdGdCdGdGdTdGdCdCdTdCdCdGdTdCdAdCdGdCdC[invdT]; aptamer)”, under “Phase 1 modification”, the “% binding @ 100 nM vWF” value is recorded as 2%. Besides, under setting [2], the Kd worked out at 3 nM.

Turning to “mCmGmUdGdCdAmGmUmGmCmCmUmUmUmGmGmCdCmG-s-TmGdCdGdGTmGmCdCmUdCdCmGmUmCmAmCmG-3T (mCmGmUdGdCdAmGmUmGmCmCmUmUmUmGmGmCdCmG*dTmGdCdGdGdTmGmCdCmUdCdCmGmUmCmAmCmG[invdT]; aptamer) [ARC1530]”, for the setting “Phase 4 and 5 modification”, the “% binding @ 100 nM vWF” value is recorded as 19.2% and the Kd worked out at 15 nM.

On to “ARC1374: ARC1361 with single phosphorothioate phosphate backbone modification (mGmCmGmUdGdCdAmGmUmGmCmCmUmUmCmGmGmCdCmGdTmGdCdGdGdT*mGmCdCmUdCdCmGmUdCmAmCmGmC[invdT]; aptamer)”, for which, under “Phase 3 modification”, the “% binding @ 100 nM vWF” value was 27.2%. Moreover, under setting [1], the Kd turned out to be 9.5 nM.

In the case of “ARC1238: ARC1172 with composite 2'-O methyl replacements in the stem regions (dGdGdCdGdTdGdCdAdGdTmGdCdCdTdTdCmGmGdCdCdGdTdGdCdGdGdTdGdCdCdTdCdCdGdTdCdAdCdGdCdC[invdT]; aptamer)”, the “% binding @ 100 nM vWF” value (Phase 1 modification) is reported as 43%. Also, under setting [2], the dissociation constant Kd was 2 nM.

“ARC1202: ARC1172 with one residue replaced by 2'-O methyl residue (DNA dGdGdCdGdTdGdCdAmGdTdGdCdCdTdTdCdGdGdCdCdGdTdGdCdGdGdTdGdCdCdTdCdCdGdTdCdAdCdGdCdC[invdT]; aptamer)”: the “% binding @ 100 nM vWF” value (Phase 1 modification) was found to be 56%. Further, under setting [2], the Kd was 0.4 nM.

Take “ARC1213: ARC1172 with one residue replaced by 2'-O methyl residue (DNA dGdGdCdGdTdGdCdAdGdTdGdCdCdTdTdCdGdGdCmCdGdTdGdCdGdGdTdGdCdCdTdCdCdGdTdCdAdCdGdCdC[invdT]; aptamer)”: the “% binding @ 100 nM vWF” value (Phase 1 modification) turned out to be 43%. Further, the Kd under setting [2] worked out at 6 nM.

With “ARC1219: ARC1172 with one residue replaced by 2'-O methyl residue (DNA dGdGdCdGdTdGdCdAdGdTdGdCdCdTdTdCdGdGdCdCdGdTdGdCdGmGdTdGdCdCdTdCdCdGdTdCdAdCdGdCdC[invdT]; aptamer)”, under “Phase 1 modification”, the “% binding @ 100 nM vWF” value came out at 33%. Moreover, the Kd under setting [2] is 3 nM.

In the case of “ARC1200: ARC1172 with one residue replaced by 2'-O methyl residue (DNA dGdGdCdGdTdGmCdAdGdTdGdCdCdTdTdCdGdGdCdCdGdTdGdCdGdGdTdGdCdCdTdCdCdGdTdCdAdCdGdCdC[invdT]; aptamer)”, the “% binding @ 100 nM vWF” value (Phase 1 modification) came out at 25%. Further, the Kd under setting [2] worked out at 5 nM.

As to “mGmCmGmUdGdCdAmGmUmGmCmCmUmUmCmGmGmCdCmG-s-TmGdCdGdGTmGmCdCmUdCdCmGmUmCmAmCmGmC-3T (mGmCmGmUdGdCdAmGmUmGmCmCmUmUmCmGmGmCdCmG*dTmGdCdGdGdTmGmCdCmUdCdCmGmUmCmAmCmGmC[invdT]) [ARC1524]”, under “Phase 4 and 5 modification”, the “% binding @ 100 nM vWF” value worked out at 26.5% and the Kd amounted to 5.7 nM.

With “ARC1230: ARC1172 with one residue replaced by 2'-O methyl residue (dGdGdCdGdTdGdCdAdGdTdGdCdCdTdTdCdGdGdCdCdGdTdGdCdGdGdTdGdCdCdTdCdCdGdTdCmAdCdGdCdC[invdT]; aptamer)”, for the setting “Phase 1 modification”, the “% binding @ 100 nM vWF” value stood at 46%. In addition, the Kd under setting [2] was found to be 3 nM.

With “ARC1195: ARC1172 with one residue replaced by 2'-O methyl residue (DNA dGmGdCdGdTdGdCdAdGdTdGdCdCdTdTdCdGdGdCdCdGdTdGdCdGdGdTdGdCdCdTdCdCdGdTdCdAdCdGdCdC[invdT]; aptamer)”, the “% binding @ 100 nM vWF” value (Phase 1 modification) is 55%. The Kd under setting [2] turned out to be 1 nM.

On to “ARC1222: ARC1172 with one residue replaced by 2'-O methyl residue (dGdGdCdGdTdGdCdAdGdTdGdCdCdTdTdCdGdGdCdCdGdTdGdCdGdGdTdGmCdCdTdCdCdGdTdCdAdCdGdCdC[invdT]; aptamer)”, for which the “% binding @ 100 nM vWF” value (Phase 1 modification) turned out to be 40%. Also, the Kd under setting [2] was determined as 0.9 nM.

For the substance “ARC1234: ARC1172 with one residue replaced by 2'-O methyl residue (dGdGdCdGdTdGdCdAdGdTdGdCdCdTdTdCdGdGdCdCdGdTdGdCdGdGdTdGdCdCdTdCdCdGdTdCdAdCdGdCmC[invdT]; aptamer)”, the “% binding @ 100 nM vWF” value (Phase 1 modification) came to 42%. Under setting [2], the Kd was determined as 2 nM.

Take “ARC1236: ARC1172 with composite 2'-O methyl replacements in the stem regions (dGdGmCdGmUdGdCdAdGdTdGdCdCdTdTdCdGdGdCdCdGdTdGdCdGdGdTdGdCdCdTdCdCdGdTmCdAmCdGmCmC[invdT]; aptamer)”: under “Phase 1 modification”, the “% binding @ 100 nM vWF” value is given as 32%. The dissociation constant (Kd) under setting [2] was found to be 3 nM.

As for “ARC1371: ARC1361 with single phosphorothioate phosphate backbone modification (mGmCmGmUdGdCdAmGmUmGmCmCmUmUmCmGmGmCdCmGdTmGdC*dGdGdTmGmCdCmUdCdCmGmUdCmAmCmGmC[invdT])”, under “Phase 3 modification”, the “% binding @ 100 nM vWF” value came to 32.1%. The dissociation constant Kd under setting [1] came to 8.4 nM.

As for “ARC1369: ARC1361 with single phosphorothioate phosphate backbone modification (mGmCmGmUdGdCdAmGmUmGmCmCmUmUmCmGmGmCdCmGdT*mGdCdGdGdTmGmCdCmUdCdCmGmUdCmAmCmGmC[invdT]; aptamer)”, the “% binding @ 100 nM vWF” value (Phase 3 modification) is recorded as 26.2%. Further, under setting [1], the Kd worked out at 16.3 nM.

As for “ARC1211: ARC1172 with one residue replaced by 2'-O methyl residue (DNA dGdGdCdGdTdGdCdAdGdTdGdCdCdTdTdCdGmGdCdCdGdTdGdCdGdGdTdGdCdCdTdCdCdGdTdCdAdCdGdCdC[invdT]; aptamer)”, for the setting “Phase 1 modification”, the “% binding @ 100 nM vWF” value stood at 47%. Under setting [2], the dissociation constant (Kd) was 2 nM.

For “ARC1379: ARC1361 with single phosphorothioate phosphate backbone modification (mGmCmGmUdGdCdAmGmUmGmCmCmUmUmCmGmGmCdCmGdTmGdCdGdGdTmGmCdCmUdCdC*mGmUdCmAmCmGmC[invdT]; aptamer)”, the “% binding @ 100 nM vWF” value (Phase 3 modification) was determined as 31.3%. In addition, the dissociation constant (Kd) under setting [1] was found to be 10.4 nM.

As for “ARC1217: ARC1172 with one residue replaced by 2'-O methyl residue (DNA dGdGdCdGdTdGdCdAdGdTdGdCdCdTdTdCdGdGdCdCdGdTdGmCdGdGdTdGdCdCdTdCdCdGdTdCdAdCdGdCdC[invdT]; aptamer)”, the “% binding @ 100 nM vWF” value (Phase 1 modification) is recorded as 18%. Also, the Kd under setting [2] came to 14 nM.
